# From article PMC3366684, “Studies on the Synthesis of Derivatives of Marine-Derived Bostrycin and Their Structure-Activity Relationship against Tumor Cells” (Marine Drugs, 2012)
# Columns and labels:
# MCF-7 cells = test: MTT cytotoxicity assay, MCF-7; type: cell-based, human; conditions: MCF7; human breast cancer cell line; MTT, 48 h exposure; mean ± SD, three independent experiments
# Method: (§1) All compounds were evaluated for their in vitro cytotoxic activity against five human cancer cell lines including human breast MCF-7, human breast MDA-MB-435, human lung A549, human liver HepG2 and human colon HCT-116, and compared with their effects on the immortalized human breast epithelial cell line MCF-10A by MTT assay using epirubicin (an anticancer drug used widely in the clinic) as positive control.
# (§2) MCF-7, MDA-MB-435, A549, HepG2 and HCT-116 cells were cultured in Dulbecco’s modification Eagle’s medium (DMEM, Invitrogen, Carlsbad, CA, USA) supplemented with 10% fetal bovine serum (FBS, Hyclone, Logan, UT, USA), 2 mM L-glutamine, 100 μg/mL streptomycin and 100 U/mL penicillin (Invitrogen). MCF-10A cells were cultured in keratinocyte serum free medium (KSFM) supplemented with 0.1–0.2 ng/mL human recombinant epidermal growth factor and 20–30 μg/mL bovine pituitary extract (Invitrogen). The cells were incubated at 37 °C in a humidified atmosphere with 5% CO2.
# (§3) Cells were harvested during logarithmic growth phase and seeded in 96-well plates at a density of 1 × 10^4 cells/mL, and cultured at 37 °C in a humidified incubator (5% CO2) for 24 h, followed by exposure to various concentrations of compounds tested for 48 h. Subsequently 20 μL of MTT (Genview, Houston, TX, USA) solution (5 mg/mL) was added to each well and mixed, the cells were then incubated for an additional 4 h. Culture supernatant was moved, 150 μL of DMSO (Sangon Biotech, Shanghai, China) was added to each well to fully dissolve the MTT-formazan crystals. Cell growth inhibition was determined by measuring the absorbance (Abs) at λ = 570 nm using a microplate reader and calculated according to the following equation:
# (§4) Growth inhibition = (1 − OD of treated cells/OD of control cells) × 100%
# (§5) The half maximal inhibitory concentrations (IC50) were obtained from liner regression analysis of the concentration-response curves plotted for each tested compound.
# A549 cells = test: MTT cytotoxicity assay, A549; type: cell-based, human; conditions: A549; human lung cancer cell line; MTT, 48 h exposure; mean ± SD, three independent experiments
# Method: as §1, §2, §3, §4, §5
# HCT-116 cells = test: MTT cytotoxicity assay, HCT-116; type: cell-based, human; conditions: HCT-116; human colon cancer cell line; MTT, 48 h exposure; mean ± SD, three independent experiments
# Method: as §1, §2, §3, §4, §5
# HepG2 cells = test: MTT cytotoxicity assay, HepG2; type: cell-based, human; conditions: Homo sapiens, HepG2, 48 h, human liver cancer cell line; MTT, 48 h exposure; mean ± SD, three independent experiments
# Method: as §1, §2, §3, §4, §5
# MDA-MB-435 cells = test: MTT cytotoxicity assay, MDA-MB-435; type: cell-based, human; conditions: MDA-MB-435; human breast cancer cell line; MTT, 48 h exposure; mean ± SD, three independent experiments
# Method: as §1, §2, §3, §4, §5
# [1] = MTT cytotoxicity assay, MCF-10A; type: cell-based; conditions: MCF-10A cells, immortalized human breast epithelial cell line, 48 h exposure, mean ± SD, three independent experiments
# Method: as §1, §2, §3, §4, §5
SMILES,melting point,IC50 (MCF-7 cells),IC50 (A549 cells),IC50 (HCT-116 cells),IC50 (HepG2 cells),IC50 (MDA-MB-435 cells),IC50 at 48 h [1]
"COC1=CC(=O)c2c(O)c3c(c(O)c2C1=O)C[C@](C)(O)[C@H](O)[C@H]3O [Compound 1, Bostrycin]",,2.18 ± 0.14 µM,2.63 ± 0.33 µM,4.78 ± 0.03 µM,7.71 ± 0.72 µM,2.82 ± 0.17 µM,14.1 ± 0.58 µM
"COC1=CC(=O)c2c(O)c3c(c(O)c2C1=O)C[C@](C)(O)[C@H](O)C3 [Compound 2, Deoxybostrycin]",224 to 225 °C,2.69 ± 0.31 µM,4.49 ± 0.13 µM,5.69 ± 0.25 µM,9.99 ± 0.55 µM,3.19 ± 0.92 µM,13.8 ± 0.76 µM
"COC1=CC(=O)c2c(cc3c(c2O)C[C@@H](O)[C@@](C)(O)C3)C1=O [Compound 3, Nigrosporin B]",> 300 °C,6.19 ± 0.6 µM,4.72 ± 0.17 µM,4.7 ± 0.39 µM,31 ± 0.71 µM,2.91 ± 0.18 µM,28.6 ± 0.91 µM
"COC1=CC(=O)c2c(O)c3c(c(O)c2C1=O)C[C@]1(C)OC(C)(C)O[C@@H]1[C@H]3O [Compound 5, 2,3-O-(isopropylidene) Bostrycin]",228 to 229 °C,6.87 ± 0.33 µM,4.25 ± 0.16 µM,11 ± 1.35 µM,37 ± 1.97 µM,5.96 ± 0.21 µM,18.1 ± 1.3 µM
"COC1=CC(=O)c2c(O)c3c(c(O)c2C1=O)C[C@]1(C)OC(C=C(C)C)O[C@@H]1[C@H]3O (stereo partly drawn) [Compound 6, 2,3-O-(3′-methylbut-2′-enyl) Bostrycin]",200 to 201 °C,7.99 ± 0.09 µM,5.5 ± 0.24 µM,7.83 ± 0.32 µM,22.3 ± 2.89 µM,11.7 ± 1.18 µM,34.1 ± 0.85 µM
"COC1=CC(=O)c2c(O)c3c(c(O)c2C1=O)C[C@]1(C)OCO[C@@H]1[C@H]3OCO [Compound 7, 1-O-(hydroxymethyl)-2,3-O-(methylene) Bostrycin]",233 to 234 °C,2.52 ± 0.26 µM,0.78 ± 0.04 µM,3.06 ± 0.1 µM,4.58 ± 0.5 µM,4.25 ± 0.57 µM,4.79 ± 0.52 µM
"COC1=CC(=O)c2c(O)c3c(c(O)c2C1=O)C[C@]1(C)OC(=O)O[C@@H]1[C@H]3O [Compound 8, 2,3-O-(carbonyl) Bostrycin]",246 to 247 °C,1.59 ± 0.16 µM,0.52 ± 0.02 µM,2.92 ± 0.06 µM,3.32 ± 0.58 µM,1.26 ± 0.12 µM,21.7 ± 1.45 µM
"CNC1=CC(=O)c2c(O)c3c(c(O)c2C1=O)C[C@](C)(O)[C@H](O)[C@H]3O [Compound 9, 6-(Methylamino)-6-demethoxybostrycin]",,3.58 ± 0.65 µM,31.1 ± 1.94 µM,34.2 ± 1.27 µM,22.4 ± 1.16 µM,> 50 µM,> 50 µM
"C[C@]1(O)Cc2c(O)c3c(c(O)c2[C@H](O)[C@H]1O)C(=O)C=C(N1CCC(c2ccccc2)CC1)C3=O [Compound 22, 6-(4′-Phenylpiperidin-1-yl)-6-demethoxybostrycin]",221 to 222 °C,4.81 ± 0.4 µM,0.76 ± 0.03 µM,0.75 ± 0.05 µM,6.61 ± 1.12 µM,0.95 ± 0.13 µM,
"COc1cccc2c1C(=O)c1c(O)c3c(c(O)c1C2=O)C[C@@](O)(C(=O)CO)C[C@@H]3O[C@H]1C[C@H](N)[C@@H](O)[C@H](C)O1 [epirubicin, reference compound]",,0.96 ± 0.08 µM,0.61 ± 0.05 µM,0.48 ± 0.03 µM,0.96 ± 0.02 µM,0.56 ± 0.06 µM,0.48 ± 0.08 µM

# Continued, in another order:
melting point,SMILES,IC50 (MCF-7 cells),IC50 (A549 cells),IC50 (HCT-116 cells),IC50 (HepG2 cells),IC50 (MDA-MB-435 cells),IC50 at 48 h [1]
210 to 211 °C,"CCCNC1=CC(=O)c2c(O)c3c(c(O)c2C1=O)C[C@](C)(O)[C@H](O)[C@H]3O [Compound 10, 6-(n-Propylamino)-6-demethoxybostrycin]",14 ± 0.98 µM,21.5 ± 1.43 µM,26.4 ± 0.89 µM,18 ± 0.6 µM,> 50 µM,> 50 µM
236 to 237 °C,"CCCCNC1=CC(=O)c2c(O)c3c(c(O)c2C1=O)C[C@](C)(O)[C@H](O)[C@H]3O [Compound 11, 6-(n-Butylamino)-6-demethoxybostrycin]",1.08 ± 0.21 µM,25.1 ± 0.74 µM,36.5 ± 0.53 µM,35.7 ± 1.29 µM,> 50 µM,> 50 µM
203 to 204 °C,"CCCCCCNC1=CC(=O)c2c(O)c3c(c(O)c2C1=O)C[C@](C)(O)[C@H](O)[C@H]3O [Compound 12, 6-(n-Hexylamino)-6-demethoxybostrycin]",4.87 ± 0.23 µM,3.74 ± 0.67 µM,4.06 ± 0.65 µM,12.9 ± 0.96 µM,4.25 ± 0.75 µM,
202 to 203 °C,"C[C@]1(O)Cc2c(O)c3c(c(O)c2[C@H](O)[C@H]1O)C(=O)C=C(NCCO)C3=O [Compound 13, 6-(2′-Hydroxyethylamino)-6-demethoxybostrycin]",35.6 ± 1.4 µM,> 50 µM,35.9 ± 1.13 µM,32.2 ± 2.43 µM,> 50 µM,> 50 µM
112 to 113 °C,"C[C@]1(O)Cc2c(O)c3c(c(O)c2[C@H](O)[C@H]1O)C(=O)C=C(NCCOCCO)C3=O [Compound 14, 6-[(2″-Hydroxyethoxy)ethylamino]-6-demethoxybostrycin]",> 50 µM,> 50 µM,> 50 µM,> 50 µM,> 50 µM,> 50 µM
226 to 227 °C,"C[C@]1(O)Cc2c(O)c3c(c(O)c2[C@H](O)[C@H]1O)C(=O)C=C(Nc1ccccc1)C3=O [Compound 15, 6-(Phenylamino)-6-demethoxybostrycin]",3.72 ± 0.27 µM,4.87 ± 0.43 µM,4.84 ± 0.25 µM,> 50 µM,10.3 ± 0.45 µM,41.6 ± 0.51 µM
202 to 203 °C,"COc1ccc(NC2=CC(=O)c3c(O)c4c(c(O)c3C2=O)C[C@](C)(O)[C@H](O)[C@H]4O)cc1 [Compound 16, 6-(p-Methoxyphenylamino)-6-demethoxybostrycin]",39.4 ± 0.68 µM,41.4 ± 2.86 µM,43.3 ± 1.56 µM,30.3 ± 1.63 µM,36.4 ± 2.08 µM,
153 to 154 °C,"C[C@]1(O)Cc2c(O)c3c(c(O)c2[C@H](O)[C@H]1O)C(=O)C=C(NCc1ccccc1)C3=O [Compound 17, 6-(Benzylamino)-6-demethoxybostrycin]",28.7 ± 2.37 µM,21.3 ± 2.02 µM,20.6 ± 0.37 µM,> 50 µM,40.4 ± 1.49 µM,19.8 ± 0.63 µM
199 to 200 °C,"C[C@]1(O)Cc2c(O)c3c(c(O)c2[C@H](O)[C@H]1O)C(=O)C=C(N1CCCCC1)C3=O [Compound 20, 6-(Piperidin-1-yl)-6-demethoxybostrycin]",3.14 ± 0.31 µM,3.16 ± 0.23 µM,2.81 ± 0.31 µM,1.99 ± 0.17 µM,4.04 ± 0.35 µM,
162 to 163 °C,"CC1CCN(C2=CC(=O)c3c(O)c4c(c(O)c3C2=O)C[C@](C)(O)[C@H](O)[C@H]4O)CC1 [Compound 21, 6-(4′-Methylpiperidin-1-yl)-6-demethoxybostrycin]",4.62 ± 0.44 µM,3.06 ± 0.46 µM,3.25 ± 0.67 µM,6.09 ± 1.14 µM,6.38 ± 0.47 µM,
156 to 158 °C,"C[C@]1(O)Cc2c(O)c3c(c(O)c2[C@H](O)[C@H]1O)C(=O)C(SCCO)=C(SCCO)C3=O [Compound 26, 6,7-bis(2′-Hydroxyethylthio)-6-demethoxybostrycin]",14.4 ± 0.42 µM,26.1 ± 3.15 µM,12 ± 1.53 µM,22.7 ± 1.95 µM,13.3 ± 0.2 µM,
150 to 151 °C,"C[C@]1(O)Cc2c(O)c3c(c(O)c2[C@H](O)[C@H]1O)C(=O)C(SCCCO)=C(SCCCO)C3=O [Compound 27, 6,7-bis(3′-Hydroxy-n-propylthio)-6-demethoxybostrycin]",6.01 ± 0.39 µM,7.31 ± 0.58 µM,3.08 ± 0.35 µM,3.18 ± 0.75 µM,3.19 ± 0.15 µM,
146 to 147 °C,"CC1SC2=C(SC1C)C(=O)c1c(O)c3c(c(O)c1C2=O)C[C@](C)(O)[C@H](O)[C@H]3O (stereo partly drawn) [Compound 29, 6,7-(Butan-2′,3′-yl-dithio)-6-demethoxybostrycin]",3.18 ± 0.22 µM,4.06 ± 0.35 µM,0.73 ± 0.02 µM,2.55 ± 0.55 µM,0.55 ± 0.11 µM,
